Measurements from US9096536B2, “Asymmetrically substituted anthrapyridazone derivatives as cytostatics” (BS-154 S.P. ZO.O., priority 2011, dated 2015).
Like-named read-outs stand apart in the source and are kept apart here.

What was measured:
[1] = test system: human promyelocytic leukemia cell line HL-60; assay: Cytostatic activity in vitro, HL-60 sensitive line; assay type: cell-based; conditions: read-out: HL60 IC50
Text: (§1) Tables 3 and 4 show cytostatic activity in vitro of 2,6-disubstituted and 2- or 6-monosubstituted (Tab.3), and of 2,5-disubstituted-(Tab.-4) tetracyclic anthrapyridazone derivatives using leukemia cell line HL-60 and the resistant cell sublines with resistance induced by vincristine (MDR-1) or doxorubicin (MRP). Activity of compounds is differentiated depending on their structure, but in all cases resistance indexes are more advantageous in comparison with reference compounds: doxorubicin and mitoxantrone.

[2] = test system: human prostate cancer cell line PC3; assay: Cytostatic activity in vitro, prostate cancer PC3; assay type: cell-based; conditions: 72 h continuous exposure
Text: (§2) Table 5 presents activity in vitro of anthrapiridazone derivatives towards three cell lines of prostate cancer, naturally multidrug resistant, in comparison with references doxorubicin, mitoxantrone and taxol.

[3] = test system: HL60/DX; assay: Cytostatic activity in vitro, doxorubicin-induced resistant subline (MRP); assay type: cell-based, human; conditions: for RI resistance index HL60/DX: IC50(resistant cells)/IC50(sensitive cells)
Text: as §1

[4] = test system: CT-DNA; assay: Interaction with isolated CT-DNA, fluorescence competition with ethidium bromide; assay type: binding; conditions: for IC50: 50% decrease in fluorescence intensity of DNA-bromide ethydine complex; for Kapp relative constant of DNA-compound bonding: Kapp = (1.26/C50) × KEtBr, KEtBr = 10^7M
Text: It could be supposed that this property explains cytostatic activity of compounds. In Table 9 there are presented quantitative data on the affinity to DNA of tested compounds using the fluorescence method and competitive affinity to DNA of bromine ethydine and tested compounds.

[5] = test system: human prostate cancer cell line LNCaP; assay: Cytostatic activity in vitro, prostate cancer LNCaP; assay type: cell-based; conditions: 72 h continuous exposure
Text: as §2

[6] = test system: human prostate cancer cell line DU145; assay: Cytostatic activity in vitro, prostate cancer DU145; assay type: cell-based; conditions: 72 h continuous exposure
Text: as §2

[7] = test system: HL60/VINC; assay: Cytostatic activity in vitro, vincristine-induced resistant subline (MDR-1); assay type: cell-based, human; conditions: for RI resistance index HL60/VINC / RI resistance index HL60VINC: IC50(resistant cells)/IC50(sensitive cells); for RI resistance index HL60/VINC: HL60/VINC vs HL60, 72 h; for RI resistance index HL60VINC: 96 h
Text: as §1

[8] = 50% inhibition of cell growth after 72 h continuous exposure
[9] = 96 h continuous exposure, read-out: HL60VINC IC50

Compound	IC50 [1, 8]	IC50 [2]	IC50 ([3]; 72 h continuous exposure)	RI resistance index HL60/DX ([3]; HL60/DX vs HL60, 72 h)	IC50 [4]	Kapp relative constant of DNA-compound bonding [4]	IC50 [5]	IC50 [6]	IC50 ([7]; 72 h continuous exposure)	RI resistance index HL60/VINC [7]	IC50 ([2]; Homo sapiens)	IC50 ([5]; Homo sapiens, LNCaP)	IC50 ([6]; Homo sapiens, DU-145)	IC50 ([1]; 96 h continuous exposure)	IC50 ([3]; 96 h continuous exposure)	RI resistance index HL60/DX ([3]; 96 h)	IC50 [7, 9]	RI resistance index HL60VINC [7]
CN(C)CCn1nc2c3c(c(NCc4ccccc4)ccc3c1=O)C(=O)c1ccccc1-2 [PDZ-8, 2-[2-(Dimethylamino)ethyl]-6-(N-benzylamino)-2,7-dihydro-3H-dibenzo[de,h]cynnoline-3,7-dione]	719 ± 27 nM	1710 ± 125 nM	4800 ± 1330 nM	6.7	7290 ± 280 nM	1.7e+06 M⁻¹	683 ± 17 nM	1220 ± 142 nM	850 ± 93 nM	1.2								
O=C1c2ccccc2C(=O)c2c(NCCNCCO)ccc(NCCNCCO)c21 [Ametantrone, reference compound]					49 ± 6 nM	2.57e+08 M⁻¹												
Nc1ccc2c(=O)n(CCN3CCCCC3)nc3c2c1C(=O)c1ccccc1-3 [PDZ-5, 2-[2-(Piperidinamino)ethyl]-6-amino-2,7-dihydro-3H-dibenzo[de,h]-cynnoline-3,7-dione]	382 ± 56 nM	886 ± 170 nM	1360 ± 135 nM	3.6	1690 ± 100 nM	7.5e+06 M⁻¹	474 ± 76 nM	538 ± 45 nM	677 ± 29 nM	1.8								
CC(=O)O[C@H]1C(=O)[C@@]2(C)[C@H]([C@H](OC(=O)c3ccccc3)[C@]3(O)C[C@H](OC(=O)[C@H](O)[C@@H](NC(=O)c4ccccc4)c4ccccc4)C(C)=C1C3(C)C)[C@]1(OC(C)=O)CO[C@@H]1C[C@@H]2O [Taxol, reference compound]											4 ± 0.4 nM	1.2 ± 0.3 nM	3.9 ± 0.6 nM					
CN(C)CCNc1ccc2c(=O)n(CCO)nc3c2c1C(=O)c1ccccc1-3 [Compound C-167, 2-(2-Hydroxyethyl)-6-(2-dimethylamino)ethylamino-2H-dibenzo[de,h]cynnoline-3,7-dione]	111 ± 27 nM	776 ± 45 nM	1240 ± 206 nM	11.1	2040 ± 70 nM	6.2e+06 M⁻¹	202 ± 35 nM	294 ± 53 nM	393 ± 45 nM	3.5								
O=C1c2ccccc2-c2nn(CCN3CCCCC3)c(=O)c3ccc(NCCNCc4ccccc4)c1c23 [PDZ-17, 2-[2-(Piperidinamino)ethyl]-6-(2-benzylaminoethylamino)-2,7-dihydro-3H-dibenzo [de,h]cynnoline-3,7-dione]	98 ± 19 nM	606 ± 38 nM	2870 ± 447 nM	29.3	460 ± 80 nM	2.72e+07 M⁻¹	166 ± 40 nM	344 ± 43 nM	477 ± 39 nM	4.9								
CN(C)CCn1nc2c3ccccc3c3nn(CCN(C)C)c4ccc(c1=O)c2c34 [Compound C-163, Bis-2,6-[2-(dimethylamino)ethyl]-2,6-dihydro-5H-benzo[h]indazolo[5,4,3-def]cynnoline-5-one]	31 ± 6 nM	122 ± 27.6 nM	330 ± 17 nM	10.6	230 ± 10 nM	5.57e+07 M⁻¹	28.2 ± 7.4 nM	21.8 ± 4.7 nM	48 ± 7 nM	1.5								
CNc1ccc2c(=O)n(CCN(C)C)nc3c2c1C(=O)c1ccccc1-3 [PDZ-7, 2-[2-(Dimethylamino)ethyl]-6-(N-methylamino)-2,7-dihydro-3H-dibenzo[de,h]cynnoline-3,7-dione]	21 ± 1 nM	80.5 ± 12 nM	620 ± 62 nM	29.5	1850 ± 160 nM	6.8e+06 M⁻¹	65.4 ± 7.4 nM	28.6 ± 2.8 nM	43 ± 2 nM	2.0								
CCNCCNc1ccc2c(=O)n(CCN(C)C)nc3c2c1C(=O)c1ccccc1-3 [Compound C-180, 2-[2-(Dimethylamino)ethyl]-6-{[2-(ethylamino)ethyl]amino}-2,7-dihydro-3H-dibenzo[de,h]cynnoline-3,7dione]	2.2 ± 0.1 nM	75.2 ± 16.2 nM	364 ± 36 nM	165.5	280 ± 50 nM	4.53e+07 M⁻¹	11 ± 1.4 nM	22.6 ± 5.2 nM	8.7 ± 0.4 nM	4.0								
CN(C)CCCNc1ccc2c(=O)[nH]nc3c2c1C(=O)c1ccccc1-3 [Compound C-131, 6-[(3-Dimethylamino)propyl]amino-3H-dibenzo[de,h]cynnoline-3,7-dione]	1150 ± 244 nM	2830 ± 234 nM	4470 ± 428 nM	3.9	1630 ± 120 nM	7.7e+06 M⁻¹	927 ± 92 nM	1480 ± 127 nM	1010 ± 51 nM	0.9								
CN(C)CCn1nc2c3c(c(NCC(=O)N(C)C)ccc3c1=O)C(=O)c1ccccc1-2 [PDZ-12, 2-[2-(Dimethylamino)ethyl]-6-[(N,N-dimethylacetamido)amino]-2,7-dihydro-3H-dibenzo[de,h]cynnoline-3,7-dione]	113 ± 7 nM	947 ± 37 nM	2680 ± 768 nM	23.7	2640 ± 290 nM	4.8e+06 M⁻¹	237 ± 45 nM	169 ± 47 nM	947 ± 111 nM	8.4								
CCCCNCCNc1ccc2c(=O)[nH]nc3c2c1C(=O)c1ccccc1-3 [PDZ-9, 6-(2-Butylaminoethylamino)-2,7-dihydro-3H-dibenzo[de,h]cynnoline-3,7-dione]	311 ± 54 nM	1250 ± 206 nM	1180 ± 94 nM	3.8	2100 ± 100 nM	6e+06 M⁻¹	427 ± 80 nM	558 ± 129 nM	574 ± 12 nM	1.8								
CN(C)CCn1nc2c3c(cc(NCCN)cc3c1=O)C(=O)c1ccccc1-2 [Compound C-170, 2-[2-(Dimethylamino)ethyl]-5-(2-aminoetyloamino)-2,7-dihydro-3H-dibenzo[de,h]cynnoline-3,7-dione]														8.2 ± 1 nM	753 ± 29 nM	91.9	210 ± 52 nM	25.6
CN(C)CCn1nc2c3c(cc(NCCNCc4ccccc4)cc3c1=O)C(=O)c1ccccc1-2 [Compound C-171, 2-[2-(Dimethylamino)ethyl]-5-[(2-benzylamino)ethylamino]-2,7-dihydro-3H-dibenzo[de,h]cynnolino-3,7-dion]														398 ± 25 nM	564 ± 34 nM	1.4	375 ± 18 nM	0.9
CC(=O)[C@]1(O)Cc2c(O)c3c(c(O)c2[C@@H](O[C@H]2C[C@H](N)[C@H](O)[C@H](C)O2)C1)C(=O)c1ccccc1C3=O [Idarubicin, reference compound]					500 ± 60 nM	2.5e+07 M⁻¹												
